Data: patent publication US6548085B1, “Insecticidal compositions and method of controlling insect pests using same” (Woodstream Corporation, priority 1998, dated 2003)

Assays:
Type in all cases: in vivo
[1] = test system: American cockroaches; test: Direct spray kill time test on American cockroaches; details: aqueous solution, sprayed 3 seconds, entry of 300 = no deaths during that time
Source text: (§1) To determine the effectiveness of an essential oil/sodium lauryl sulfate aerosol spray according to this invention as an insecticide when applied directly by a conventional pump spray on German cockroaches, American cockroaches and various ant species.
(§2) Insects shall be healthy and undeformed. Only adult male and female insects shall be used for testing purposes. The insects shall be contained in a 21.5×15.5×5.5 inch testing arena.
(§3) 1. Gather 10 adult insects, 5 males and 5 females.
(§4) 2. Place 1 insect into the testing arena.
(§5) 3. Select spray to be tested. Spray cockroaches for 3 seconds, ants for 2 seconds.
(§6) 4. Record kill time in seconds.
(§7) 5. Wipe away any spray residue before beginning another test.
(§8) 6. Repeat steps 2, 3, 4 and 5 until all test insects are used.
(§9) 7. Record date of testing, type of test material used, type of insect used, kill time in seconds, and whether or not test specimen meets standard.
(§10) Following this protocol, aqueous solutions of selected essential oils were prepared at different concentrations, both with and without the addition of sodium lauryl sulfate, and tested for their insecticidal activity (kill time in seconds) against German and American cockroaches and black or pavement ants. The results are tabulated below and illustrated graphically in the accompanying drawings.
(§11) ^3 The tests shown in the Tables utilized the active ingredients in an aqueous solution dispensed from a standard pump-type sprayer. Shorter kill times result when the insecticide is aerosolized, i.e., dispensed from a pressurized aerosol can using a propellant such as carbon dioxide.

[2] = test system: German cockroaches; test: Direct spray kill time test on German cockroaches; details: aqueous solution, sprayed 3 seconds, entry of 300 = no deaths during that time
Source text: as §1, §2, §3, §4, §5, §6, §7, §8, §9, §10, §11

[3] = test system: Black Ants; test: Direct spray kill time test on black ants; details: aqueous solution, sprayed 2 seconds, entry of 300 = no deaths during that time
Source text: as §1, §2, §3, §4, §5, §6, §7, §8, §9, §10, §11

[4] = test system: Pavement Ants; test: Direct spray kill time test on pavement ants; details: aqueous solution, pump sprayer, sprayed 2 seconds, entry of 300 = no deaths during that time
Source text: as §1, §2, §3, §4, §5, §6, §7, §8, §9, §10, §11

[5] = cinnamon oil series, pump sprayer
[6] = citronella oil series, pump sprayer
[7] = cornmint oil series, standard pump-type sprayer
[8] = grapefruit oil series, pump sprayer
[9] = orange sweet oil series, pump sprayer
[10] = peppermint oil series, pump sprayer
[11] = tangerine oil series, pump sprayer

Measured: Kill Time

CCCCCCCCCCCCOS(=O)(=O)[O-].[Na+] [100% SLS, sodium lauryl sulfate]
> 300 s: [1]; [5] | [1]; [6] | [1]; [7] | [1]; [8] | [1]; lemon oil series, pump sprayer | [1]; lime oil series, pump sprayer | [1]; [9] | [1]; [10] | [1]; [11] | [2]; [5] | [2]; [6] | [2]; [8] | [2]; lemon oil series, pump sprayer | [2]; lime oil series, pump sprayer | [2]; orange sweet oil series, pump sprayer, repetitions of 10% OSO mixture not performed | [2]; [10] | [2]; [11] | [3]; [5] | [3]; [7] | [3]; [9] | [4]; citronella oil series | [4]; grapefruit oil series | [4]; lemon oil series | [4]; lime oil series | [4]; peppermint oil series | [4]; tangerine oil series
> 300^1 Seconds: [2]; [7]
